Measured values from US6350766B1, “Dihydropyridine derivative” (Ajinomoto Co., Inc., priority 1997, dated 2002).

Key:
[1] = tested on: L-type calcium channel; assay: L-type calcium channel inhibition
[2] = molecular target: T1, N-type calcium channel (Rattus norvegicus, UniProt Q02294); assay: Inhibition of N-type calcium channel: calcium currents in cells of maxillary sympathetic ganglions of rats, whole cell voltage clamp; type: cell-based; conditions: rat maxillary sympathetic ganglion cells, depolarization from -60 mV to 0 mV, barium as charge carrier
T1 construct: from tissue; host or cells: freshly dissociated sympathetic ganglion cells of Wistar rats (2 to 4 weeks old)
T1 sequence (Q02294 whole entry): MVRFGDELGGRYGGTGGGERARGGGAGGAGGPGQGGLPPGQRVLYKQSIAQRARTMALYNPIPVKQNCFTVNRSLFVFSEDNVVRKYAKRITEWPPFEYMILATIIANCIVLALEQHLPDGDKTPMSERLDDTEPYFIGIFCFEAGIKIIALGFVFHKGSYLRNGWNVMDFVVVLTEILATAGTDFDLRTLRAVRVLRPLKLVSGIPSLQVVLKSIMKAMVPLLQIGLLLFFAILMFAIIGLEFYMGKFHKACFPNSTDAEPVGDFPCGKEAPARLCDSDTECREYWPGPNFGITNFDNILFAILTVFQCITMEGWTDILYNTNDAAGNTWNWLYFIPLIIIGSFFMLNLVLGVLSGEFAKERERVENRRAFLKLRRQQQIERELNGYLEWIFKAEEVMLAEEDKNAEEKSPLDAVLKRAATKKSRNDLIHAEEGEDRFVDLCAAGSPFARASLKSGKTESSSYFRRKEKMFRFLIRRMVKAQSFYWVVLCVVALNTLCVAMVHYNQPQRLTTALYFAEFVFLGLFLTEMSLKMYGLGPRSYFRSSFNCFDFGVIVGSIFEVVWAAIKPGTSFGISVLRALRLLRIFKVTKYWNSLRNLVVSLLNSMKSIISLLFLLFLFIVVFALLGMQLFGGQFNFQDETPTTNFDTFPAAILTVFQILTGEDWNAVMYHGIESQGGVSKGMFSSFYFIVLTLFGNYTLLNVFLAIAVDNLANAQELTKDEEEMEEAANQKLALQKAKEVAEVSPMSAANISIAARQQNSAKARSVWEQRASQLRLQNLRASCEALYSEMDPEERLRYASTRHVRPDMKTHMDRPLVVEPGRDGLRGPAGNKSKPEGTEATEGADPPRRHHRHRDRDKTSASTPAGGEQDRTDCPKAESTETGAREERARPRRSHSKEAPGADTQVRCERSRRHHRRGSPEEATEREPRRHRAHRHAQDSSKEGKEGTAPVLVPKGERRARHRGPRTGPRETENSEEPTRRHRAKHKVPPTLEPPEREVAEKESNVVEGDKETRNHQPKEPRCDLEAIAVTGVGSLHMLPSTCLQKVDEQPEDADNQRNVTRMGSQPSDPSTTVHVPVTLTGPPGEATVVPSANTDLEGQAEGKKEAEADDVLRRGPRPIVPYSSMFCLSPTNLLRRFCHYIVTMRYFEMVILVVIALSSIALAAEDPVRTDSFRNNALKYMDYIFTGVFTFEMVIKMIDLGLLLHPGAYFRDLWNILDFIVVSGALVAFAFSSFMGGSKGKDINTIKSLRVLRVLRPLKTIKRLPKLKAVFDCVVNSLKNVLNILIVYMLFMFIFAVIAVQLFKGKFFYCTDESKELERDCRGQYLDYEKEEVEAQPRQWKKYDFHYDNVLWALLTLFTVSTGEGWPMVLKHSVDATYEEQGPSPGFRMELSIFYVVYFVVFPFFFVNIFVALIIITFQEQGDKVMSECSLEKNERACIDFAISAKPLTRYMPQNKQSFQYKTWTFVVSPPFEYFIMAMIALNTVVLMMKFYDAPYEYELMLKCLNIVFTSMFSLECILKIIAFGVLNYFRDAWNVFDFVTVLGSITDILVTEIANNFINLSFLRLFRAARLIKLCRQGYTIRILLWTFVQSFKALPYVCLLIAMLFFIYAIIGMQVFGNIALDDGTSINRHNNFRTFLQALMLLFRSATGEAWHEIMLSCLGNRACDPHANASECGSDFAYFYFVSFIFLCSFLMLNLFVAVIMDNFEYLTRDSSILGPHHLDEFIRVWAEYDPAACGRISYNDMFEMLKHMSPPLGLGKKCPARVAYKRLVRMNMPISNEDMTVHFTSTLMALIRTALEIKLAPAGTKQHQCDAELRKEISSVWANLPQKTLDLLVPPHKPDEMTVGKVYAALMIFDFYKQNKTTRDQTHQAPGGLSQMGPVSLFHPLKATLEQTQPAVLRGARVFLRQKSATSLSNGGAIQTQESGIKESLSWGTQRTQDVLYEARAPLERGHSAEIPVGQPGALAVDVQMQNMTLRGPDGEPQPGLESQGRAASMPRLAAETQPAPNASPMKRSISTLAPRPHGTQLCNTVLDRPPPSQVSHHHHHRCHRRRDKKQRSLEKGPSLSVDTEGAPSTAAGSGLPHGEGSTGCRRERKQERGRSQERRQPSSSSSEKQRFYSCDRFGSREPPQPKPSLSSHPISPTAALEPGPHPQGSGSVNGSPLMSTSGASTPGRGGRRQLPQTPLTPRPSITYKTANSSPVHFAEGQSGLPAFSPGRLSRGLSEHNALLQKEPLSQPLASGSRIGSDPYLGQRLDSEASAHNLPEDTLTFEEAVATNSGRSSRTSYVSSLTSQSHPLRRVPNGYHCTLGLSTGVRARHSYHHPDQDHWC
T1 sequence (P54287 whole entry partner): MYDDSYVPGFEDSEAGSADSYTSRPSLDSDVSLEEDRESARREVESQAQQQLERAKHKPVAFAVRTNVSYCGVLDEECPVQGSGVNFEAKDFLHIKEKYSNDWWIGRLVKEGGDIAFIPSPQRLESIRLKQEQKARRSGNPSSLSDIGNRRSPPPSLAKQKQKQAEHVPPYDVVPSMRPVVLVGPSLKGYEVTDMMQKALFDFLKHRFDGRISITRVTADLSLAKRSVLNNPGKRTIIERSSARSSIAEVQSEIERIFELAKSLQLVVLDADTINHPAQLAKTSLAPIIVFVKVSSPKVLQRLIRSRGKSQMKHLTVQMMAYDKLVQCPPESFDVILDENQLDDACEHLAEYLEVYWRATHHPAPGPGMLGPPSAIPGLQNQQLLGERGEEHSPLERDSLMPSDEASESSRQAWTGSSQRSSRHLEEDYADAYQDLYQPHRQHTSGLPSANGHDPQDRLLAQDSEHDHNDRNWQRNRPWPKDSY
T1 sequence (P54290 25-944 partner limits assumed): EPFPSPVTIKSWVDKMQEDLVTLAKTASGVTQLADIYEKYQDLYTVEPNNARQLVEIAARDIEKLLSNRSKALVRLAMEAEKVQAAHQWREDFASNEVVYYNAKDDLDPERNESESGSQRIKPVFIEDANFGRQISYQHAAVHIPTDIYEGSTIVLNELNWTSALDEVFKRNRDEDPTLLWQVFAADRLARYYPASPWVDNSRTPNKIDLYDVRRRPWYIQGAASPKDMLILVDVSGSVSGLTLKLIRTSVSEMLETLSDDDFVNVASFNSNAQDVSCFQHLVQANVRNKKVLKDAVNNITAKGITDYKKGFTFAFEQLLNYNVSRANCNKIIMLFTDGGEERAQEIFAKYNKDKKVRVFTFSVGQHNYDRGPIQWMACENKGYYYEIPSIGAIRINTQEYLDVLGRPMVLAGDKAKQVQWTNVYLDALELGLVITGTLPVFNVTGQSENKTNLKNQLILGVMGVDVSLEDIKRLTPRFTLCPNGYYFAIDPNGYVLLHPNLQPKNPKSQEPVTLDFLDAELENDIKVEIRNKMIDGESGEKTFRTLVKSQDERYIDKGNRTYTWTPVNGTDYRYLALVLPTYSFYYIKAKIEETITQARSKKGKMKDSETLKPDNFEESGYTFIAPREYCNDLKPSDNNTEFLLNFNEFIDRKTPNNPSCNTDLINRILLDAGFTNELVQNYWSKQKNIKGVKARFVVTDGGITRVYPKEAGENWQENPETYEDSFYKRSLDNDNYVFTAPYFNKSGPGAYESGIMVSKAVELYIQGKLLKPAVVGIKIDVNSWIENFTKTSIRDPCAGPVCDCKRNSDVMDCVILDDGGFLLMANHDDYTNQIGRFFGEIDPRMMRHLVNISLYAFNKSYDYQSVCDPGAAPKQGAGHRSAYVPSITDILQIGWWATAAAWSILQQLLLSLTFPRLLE
T1 sequence (P54290 945-1091 partner limits assumed): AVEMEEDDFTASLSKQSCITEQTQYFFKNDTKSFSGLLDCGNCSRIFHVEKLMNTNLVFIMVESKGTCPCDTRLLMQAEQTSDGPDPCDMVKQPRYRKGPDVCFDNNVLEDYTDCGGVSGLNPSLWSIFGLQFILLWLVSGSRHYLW
Description: (Test Examples) Inhibition activity of N-type calcium channel:
1) Preparation of cells of maxillary sympathetic ganglions of rats:
The cervix of each of Wistar rats (2 to 4 weeks old) was opened to expose the maxillary ganglions under anesthesia with pentobarbital. A pair of the ganglions were removed and immediately washed with Ca^2+-free Tyrode solution cooled with ice. Each ganglion was cut into 3 or 4 pieces and kept in the Ca^2+-free Tyrode solution for 15 minutes. Then, these pieces were treated with papain [Washington Biochemicals (lot#35J557); 20 U/ml] and then with a mixture of type-2 collagenase [Washington Biochemicals (CLS2); 5900 U/ml] and dispase [Calbiochem (lot#1312973); 16 mg/ml] for one hour. After enzymatic treatment, the ganglion cells were mechanically isolated by pipetting. The isolated ganglion cells were used for the experiments within 6 hours.
2) Determination of calcium electric current:
The calcium electric current was determined by the whole cell voltage clamp method under the fixed membrane potential. The pipette electrode was pulled from glass tube (inner diameter: 1.5 mm; Narishige) in two stage of a vertical pipette puller (PB-7; Narishige). The ionic current was amplified with a patch amplifier (CEZ-2300; Nihon Kohden Corporation). The noises were cut at 10 kHz (E-3201B, NF Electronic Instrument) and then the ionic current was monitored on a storage oscilloscope (DS-9121, Iwatsu) and, at the same time, recorded with a DAT data recorder (RD-120TE, TEAC). Then it was passed through a 1 kHz filter and recorded in a computer (Compaq DeskPro) with PCLAMP software (Axon Instrument) of 3 kHz. All the experiments were performed at room temperature (25±2° C.). In the measurement of current through the calcium channel, 10 mM barium (composition of the solution: shown below) was used in place of calcium as the charge carrier. The transmission of barium through the calcium channel was better than that of calcium in the sympathetic ganglion cells, and the calcium-dependent channel inactivation was slight when barium was used.
The test compounds were rapidly administered by Y-tube method by Murase et al. [Brain Res. 525, 84 (1990)]. Each compound was dissolved in DMSO, preparing 10 mM mother solution. At the highest drug concentration used, the vehicle (0.1%) had no significant effect on the calcium current.
2) Composition of Normal Tyrode's solution: NaCl; 143, KCl; 4, MgCl2; 0.5; CaCl2; 1.8, glucose; 5.5, NaH2PO4; 0.33, HEPES; 5 (Mm). The pH was adjusted to 7.4 with tris-OH. Composition of Ca-free Tyrode's solution: the same as that of the Normal Tyrode's solution except that it was free of CaCl2.
External solution for the determination of calcium electric current (mM): TEACL; 144, CsCl; 4, BaCl2; […], MgCl2; 0.53, glucose: 5.5, HEPES; 5 (pH 7.4)
Solution in patch electrode: CsCl; 140, MgCl2; 5, CaCl2; 0.28, HEPES; 10 (pH 7.2), EGTA; 5 (pH 7.2).
The electric current was induced by the depolarization for 50 ms, from the holding potential of −60 mV to the test potential of 0 mV. This test potential was the peak in the current/voltage relationship, and the inhibition effect was examined at this point at which the error by the drift of the holding potential was reduced. As Tsein et al. reported, the maxillary ganglion cells were substantially free of L-type component (not more than 5%), and at least 85% thereof comprised the N-type component. […] The inhibition activity of the dihydropyridine derivatives (1 uM) thus determined was 10 to 70%.

For `CC1=C(C(=O)O)C(c2cccc(C#N)c2)C(C(=O)OC/C=C/c2ccccc2)=C(C)N1` (stereo not drawn) [Example 3, mono(3-phenyl-2-propene-1-yl) 4-(3-cyanophenyl)-2,6-dimethyl-1,4-dihydropyridine-3,5-dicarboxylate], the IC50 [1] was 6.3 nM, the “L-type inhibition 100 nM (%)” value [1] was 98% and the inhibition at 0.1 µM [2] was 47.5%.

`CC1=C(C(N)=O)C(c2cccc(Cl)c2)C(C(=O)OC/C=C/c2ccccc2)=C(C)N1` (stereo not drawn) [Example 8, (3-phenyl-2-propene-1-yl) 5-carbamoyl-4-(3-chlorophenyl) -2,6-dimethyl-1,4-dihydropyridine-3-carboxylate] was tested, and the IC50 [1] was 32 nM, the “L-type inhibition 100 nM (%)” value [1] was 75% and the inhibition at 0.1 µM [2] was 31.4%.

For `CC1=C(C#N)C(c2cccc(Cl)c2)C(C(=O)OC/C=C/c2ccccc2)=C(C)N1` (stereo not drawn) [Example 9, (3-phenyl-2-propene-1-yl) 4-(3-chlorophenyl) -5-cyano-2,6-dimethyl-1,4-dihydropyridine-3-carboxylate], the IC50 [1] was 82 nM, the “L-type inhibition 100 nM (%)” value [1] was 56% and the inhibition at 0.1 µM [2] was 21.3%.

`CC1=C(C(=O)O)C(c2cccc(Cl)c2)C(C(=O)OCC(=O)Nc2ccccc2)=C(C)N1` (stereo not drawn) [Example 14, mono(phenylcarbamoylmethyl) 4-(3-chlorophenyl)-2,6-dimethyl-1,4-dihydropyridine-3,5-dicarboxylate] was tested, and the IC50 [1] was 50 nM, the “L-type inhibition 100 nM (%)” value [1] was 70% and the inhibition at 0.1 µM [2] was 28.6%.

`COc1cccc(C2C(C(=O)O)=C(C)NC(C)=C2C(=O)OC/C=C/c2ccccc2)c1` (stereo not drawn) [Example 20, mono(3-phenyl-2-propene-1-yl) 4-(3-methoxyphenyl)-2,6-dimethyl-1,4-dihydropyridine-3,5-dicarboxylate] was tested, and the IC50 [1] was 250 nM, the “L-type inhibition 100 nM (%)” value [1] was 38% and the inhibition at 0.1 µM [2] was 24.3%.
